Measurements: patent publication US20200108032A1, “USE OF ISOFERULIC ACID, ISOFERULIC ACID-CONTAINING TRADITIONAL CHINESE MEDICINE EXTRACT AND CIMICIFUGAE RHIZOMA” (BEIJING DITAN HOSPITAL, CAPITAL MEDICAL UNIVERSITY, priority 2017, published 2020)

Legend:
Type in all cases: in vivo, C57BL/6 mice
[1] = system: mouse model of ConA hepatitis; test: Survival rate of hepatitis mouse model of ConA; details: ConA 25 mg/kg i.v.; drug by gavage (compatibility 7 g/kg, Cimicifugae rhizoma 2 g/kg, total phenolic acid 300 mg/kg crude drug, isoferulic acid 5 mg/kg); observed at 96 h; model group 20%
Source text: Test materials: ConA was purchased from Sigma; isoferulic acid was purchased from Tianjin Fangfang Technology Co., Ltd.
Animals: C57BL/6 mice, purchased from Beijing Huafukang Biotechnology Co., Ltd.
Grouping: 50 C57BL/6 mice, male, 18-20 g, after 1 day of adaptive breeding, the mice were randomly divided into 5 groups of 10 in each group: ConA model group, Cimicifugae rhizoma compatibility group, Cimicifugae rhizoma group, Cimicifugae rhizoma total phenolic acid group and isoferulic acid group.
Model preparation and drug administration: 150 mg of ConA powder were weighed and dissolved in 40 mL of sterile PBS and left at room temperature for 1 to 2 hours; the solution was intermittently shaken gently to mix well. Low temperature ultrasound promoted dissolution (no more than 5 min each time) and avoided excessive foaming. After the solution was fully dissolved, the volume was adjusted to 50 mL, prepared to a concentration of 3 mg/mL, and filtered under pressure with a 0.45 μm filter. Mice were given a single intravenous injection at 25 mg/kg, with 100 μL per mouse. […]

[2] = system: mouse model of ConA hepatitis; test: Serum ALT and AST in mouse model of ConA hepatitis; details: serum 10 hours after ConA 15 mg/kg i.v.; doses as Experimental Example 1; MEAN ± SEM
Procedure: The test materials and animals were the same as those in Experimental Example 1.
Grouping: C57BL/6 mice, male, 18-20 g, after 1 day of adaptive breeding, the mice were randomly divided into 6 groups: normal control group; ConA model group, Cimicifugae rhizoma compatibility group, Cimicifugae rhizoma group, Cimicifugae rhizoma total phenolic acid group and isoferulic acid group.
Model preparation and drug administration: except the normal control group, mice were injected intravenously once at a dose of ConA 15 mg/kg. The dosages of each drug group were the same as those of Experimental Example 1.
(1) The effects of each drug group on serum ALT and AST of ConA mice were examined. Eight mice in each group were sacrificed under anesthesia 10 hours after ConA injection. Peripheral blood was taken and serum was separated to detect ALT and AST.

CIA arthritis mice = test: Micro-CT of joint structure / bone damage in CIA mice; details: 21 days after second immunization, MEAN ± SEM
Source text: Test materials and animals: Consistent with Experimental Example 3. Anti-type II collagen antibody ELISA kit was purchased from Chondrex, Cytokine & Chemokine 36-Plex Mouse ProcartaPlex™ Panel 1A cytokine and chemokine detection kit was purchased from ThermoFisher.
Model preparation and drug administration: the drug dosage of each treatment group was the same as that of Experimental Example 3. After 21 days of the second immunization, the mice were anesthetized.
(1) Micro-CT technology was used to examine the effect of each drug group on the joint structure of CIA mice. After taking 3 mice from each group, the right hind limbs were taken immediately after neck dissection and fixed in 4% neutral formalin. After 2-3 days of fixation, a micro-CT scan was performed using a live animal imaging system. Extraction site: extracted the data of the area above the tibial plaque plate of the right hind limb of the mouse. 3 sets of data were taken. Size selection: the upper part of the tibial plaque plate (0.25*0.25*0.25); measurement indicators of the extracted bones: bone density, bone volume, bone volume fraction and number of bone trabeculae.

[3] = system: granulocytes and NK cells; test: Proliferation (Ki-67) of granulocytes and NK cells in CIA arthritis mice (flow cytometry); details: intracellular Ki-67 expression; 21 days after second immunization; MEAN ± SEM
Source text: Test materials and animals: CD3-PerCP, NK1.1-APC antibody, Ki67-PE antibody, Intracellular Fixation & Permeabilization Buffer Set were purchased from eBioscience; CD48 PE, CD11b FITC and B220-FITC antibodies were purchased from BD Pharmingen company; other required reagents were the same as in Example 7.
Model preparation and drug administration: the administration dose of each treatment group was the same as that of Experimental Example 3. 21 days after the second immunization, the mice were anesthetized.
Animal: C57BL/6 mice, purchased from Beijing Huafukang Biotechnology Co., Ltd.
The proliferation capacity of the spleen Ki-67 expression response cell was detected by flow cytometry. Two tubes of spleen single cell suspension were prepared and used to detect the proliferation of CD48^−CD11b^+ positive granulocytes and CD3^−NK1.1^+B220^−NK cells.
The surface staining procedure was the same as in Experimental Example 7.
Intracellular staining: after surface staining, intracellular staining was performed: 1) added 100 μL of fixed membrane-breaking solution Fixation Buffer, protected it from light at room temperature, fixed the membrane for 40 min; 2) added 1 mL of Permeabilization Buffer and washed twice, discarded the supernatant 3) added 1 μL of Ki-67-PE antibody at room temperature and protected it from light for 40 min; 4) same as step 2); and 5) used flow cytometer BD Calibar to measure the percentages of intracellular Ki-67 expression in CD48^−CD11b+ positive granulocytes, and CD3^−[…]B220^−NK cells, respectively.

SMILES: COc1ccc(C=CC(=O)O)cc1O [isoferulic acid, 3-hydroxy-4-methoxycinnamic acid]
- survival rate of mice [1]: 60%
- ALT [2]: 3573 ± 1314 U/L
- AST [2]: 4351 ± 1588 U/L
- Bone density (CIA arthritis mice; area above tibial plate of right hind limb): 9.5 ± 1.5 mg/cc
- Bone volume (CIA arthritis mice; right hind limb): 0.0014 ± 0.0005 mm 3
- Bone volume fraction (CIA arthritis mice; right hind limb): 0.095 ± 0.034
- number of trabeculae (CIA arthritis mice; right hind limb): 2.042 ± 0.572 1/mm
- Proliferation of Granulocytes, bone marros [3]: 27.8 ± 8.2 %
- Proliferation of Granulocytes, spleen [3]: 26.8 ± 12.5 %
- Proliferation of NK cells, spleen [3]: 14 ± 9 %
